Data published in patent US9216956B2, “Deuterium-enriched 4-hydroxy-5-methoxy-N,1-dimethyl-2-oxo-N-[(4-trifluoro-methyl)phenyl]-1,2-dihydroquinoline-3-carboxamide” (ACTIVE BIOTECH AB, priority 2011, dated 2015).
“And” between values parts separate entries of the source, which are not always exact repeats. Identical values can stand only once.

Key:
[1] = tested on: CYP1A2; assay: In vivo CYP1A2 induction in rat, MROD activity of liver microsomes; details: rat, in vivo
Procedure: (§1) The in vivo induction of CYP1A1 and CYP1A2 after repeated administration of ABR-215050 and of ABR-215050-dx, respectively, was studied in rat.
(§2) Test preparations B and C and blank preparation A were made as follows: For preparation B, ABR-215050 was dissolved in NaOH and sterile water at a concentration of 0.5 mg/mL. The pH of the solution was adjusted to pH 7.4-8.5. Preparation C was made in the same way, using ABR-215050-dx. Preparation A was a blank containing only water. The preparations were stored in a refrigerator for a maximum of one week before use.
(§3) On arrival at the laboratory, the test animals were 9 weeks old Sprague Dawley male rats having a body weight of 250 g. They were divided into 3 groups and were allowed to acclimatize for at least 7 days before the test. During the whole acclimatization and test period, the animals received water and feed (Labfor R70, form Kimstad, Sweden) ad libitum, and were kept under a 12 hours dark/12 hours light cycle, at a temperature of 20±2° C. and a relative humidity of 50±15%.
(§4) Before administration of any test preparation, the body weight of each animal was measured and the individual dose to be administered to an animal was determined based on the weight of the animal. Administration was performed perorally during 4 days, cf.
(§5) At 24 h after administration of the final dose, the animals were weighed and from each animal a final blood sample was withdrawn for a pharmacokinetic analysis. The animals then were euthanized and from each one the liver was withdrawn, weighed, and immediately frozen in crushed dry ice. The livers then were stored at −70° C. until preparation of microsomes.
(§6) Microsomes were prepared according to the method M-0287 “Preparation of subcellular fractions from animal tissues” and then kept at −70° C. until analysis.
(§7) The total protein concentration of the microsomal fraction was determined according to the method M-0289 “Determination of Protein according to Hartree”.

[2] = tested on: LNCaP tumor; assay: Anti-tumor effect on subcutaneous LNCaP-19 tumor in Nude BALB/c mice; type: in vivo, mouse; details: 10 mg/kg/day via drinking water from day 7
Procedure: The anti-tumor effect of deuterated ABR-215050 was studied in mouse.
The castration resistant subline LNCaP-19 was previously established from LNCaP cells (12). Cells were maintained as previously described (13). The LNCaP-19 cells were between passage 10 and 23 when used in the experiments. Passage 1 is defined as the first passage in our laboratory. The cells were tested and found free from mycoplasma.
Male athymic Nude BALB/c mice (age 8 weeks) were purchased from Taconic (Lille Skensved, Denmark). For subcutaneous implantation, one million tumor cells suspended in 200 μl Matrigel (BD Bioscience, Bedford, Mass.) were inoculated on the flank of the mice. The tumor size was measured by a caliper once a week throughout the experiment and the tumor take was 75% in the untreated control group (n=12). In the tumor growth experiment, ABR-215050-dx (10 mg/kg/day) was administered via drinking water from day 7. To assure appropriate dose was given with no significant fluctuations, water consumption was monitored for each animal cage during the entire experiment. […] Animals were sacrificed when the average tumor size for the control group reached a volume of 900±100 mm^3 or when the tumor volume for an individual animal reached 1200 mm^3 The results are illustrated in FIG. 7.

[3] = In vivo pharmacokinetics in rat: plasma levels of parents and amide-N demethyl metabolite after 1:1 mixture; details: for Plasma level: peroral 2.5 mg/kg of each compound (1:1 mixture)
Source text: Therefore, the pharmacokinetic characteristics of the amide-N methyl deuterated ABR-215050 (herein below referred to as ABR-215050-dx), wherein the amide-N methyl moiety was tri-deuterated, compared to the non-deuterated parent compound were studied in rat. […] In other words: relative to ABR-215050, the in vivo formation of ABR-215691 was reduced to only 25% when ABR-215050-dx was used.
A deuterated (also referred to as deuterium-enriched) ABR-215050 was synthesized, wherein the amide-N methyl moiety was trideuterated (ABR-215050-dx). This deuterated compound was diluted with non-deuterated ABR-215050 to a molar ratio of 1:1. The 1:1 equivalent molar mixture was administrated to rats in an in vivo experiment. Because of additional 13-carbon labeling in the quinoline scaffold, the formed amide-N demethyl metabolites could be measured selectively by means of HPLC-MS (High performance Liquid Chromatography with Mass Spectrometric detection). In Table 5, the plasma levels of ABR-215050-dx and ABR-215050 (in nM) measured in 4 different rats are shown, as well as the ratio of these two compounds.

[4] = tested on: CYP1A1; assay: In vivo CYP1A1 induction in rat, EROD activity of liver microsomes
Procedure: as §1, §2, §3, §4, §5, §6, §7

With `[2H]C([2H])([2H])N(C(=O)c1c(O)c2c(OC)cccc2n(C)c1=O)c1ccc(C(F)(F)F)cc1` [ABR-215050-dx, 4-Hydroxy-5-methoxy-N-deuteriomethyl-1-methyl-2-oxo-N-[(4-trifluoromethyl)phenyl]-1,2-dihydroquinoline-3-carboxamide] the “mean fold induction of CYP1A2” value [1] was 5.5, the “reduction of the fold induction of CYP1A2 versus ABR-215050” value [1] was 68% and the “CYP1A2 activity (MROD), Mean” value ([1]; 1 mg/kg) was 111 pmol/mg prot/min. The “anti-tumor effect (in words)” value [2] was “retains a high therapeutic activity”, the “Ratio of metabolite plasma levels, Mean” value ([3]; mean of rats 1-4) was 0.26 and the “Reduction of amide-N demethylation, Mean” value ([3]; mean of rats 1-4) was 74.1%. For the same compound, the “Plasma levels of ABR-215691 from the administered compound, Mean” value ([3]; mean of rats 1-4 (1-4 h), peroral 2.5 mg/kg) was 74.8 nM, the “formation of demethylated metabolite compared to non-deuterium labeled ABR-215050 (in words)” value ([3]; rat) was “diminished by as much as a factor of four” and the “in vivo formation of ABR-215691 relative to ABR-215050” value ([3]; rat) was 25%. The “Ratio ABR-215050-dx/ABR-215050 (plasma levels)” value ([3]; rat No 1, 1 h) was 0.97, the “Ratio of metabolite plasma levels (ABR-215691 from ABR-215050-dx / from ABR-215050)” value ([3]; rat No 1, 1 h) was 0.24 and the “Reduction of amide-N demethylation” value ([3]; rat No 1, 1 h) was 75.8%. For the same compound, the “Plasma levels of ABR-215691 from the administered compound” value ([3]; rat No 1, 1 h, peroral 2.5 mg/kg) was 64.0 nM, the Plasma level ([3]; rat No 1, 1 h) was 13394 nM and the “Ratio ABR-215050-dx/ABR-215050 (plasma levels)” value ([3]; rat No 2, 2 h) was 0.99. The “Ratio of metabolite plasma levels (ABR-215691 from ABR-215050-dx / from ABR-215050)” value ([3]; rat No 2, 2 h) was 0.30, the “Reduction of amide-N demethylation” value ([3]; rat No 2, 2 h) was 70.5% and the “Plasma levels of ABR-215691 from the administered compound” value ([3]; rat No 2, 2 h, peroral 2.5 mg/kg) was 93.9 nM. For the same compound, the Plasma level ([3]; rat No 2, 2 h) was 13665 nM, the “Ratio ABR-215050-dx/ABR-215050 (plasma levels)” value ([3]; rat No 3, 3 h) was 0.99 and the “Ratio of metabolite plasma levels (ABR-215691 from ABR-215050-dx / from ABR-215050)” value ([3]; rat No 3, 3 h) was 0.24. For the same compound, the “Reduction of amide-N demethylation” value ([3]; rat No 3, 3 h) was 75.7%, the “Plasma levels of ABR-215691 from the administered compound” value ([3]; rat No 3, 3 h, peroral 2.5 mg/kg) was 46.6 nM and the Plasma level ([3]; rat No 3, 3 h) was 7322 nM. The “Ratio ABR-215050-dx/ABR-215050 (plasma levels)” value ([3]; rat No 4, 4 h) was 1.00, the “Ratio of metabolite plasma levels (ABR-215691 from ABR-215050-dx / from ABR-215050)” value ([3]; rat No 4, 4 h) was 0.25 and the “Reduction of amide-N demethylation” value ([3]; rat No 4, 4 h) was 74.6%. The “Plasma levels of ABR-215691 from the administered compound” value ([3]; rat No 4, 4 h, peroral 2.5 mg/kg) was 94.6 nM, the Plasma level ([3]; rat No 4, 4 h) was 17824 nM and the “reduction of the fold induction of CYP1A1 versus ABR-215050” value ([4]; (42-11.5)/42×100%) was 73%. For the same compound, the “CYP1A1 activity (EROD), Mean” value ([4]; group mean, 1 mg/kg perorally days 1-4) was 534 pmol/mg prot/min, the “mean fold induction of CYP1A1” value ([4]; group mean, versus water group) was 11.5 and the “CYP1A1 activity (EROD)” value ([4]; individual rat, 1 mg/kg perorally days 1-4, liver microsomes 24 h after final dose, 1 mg/kg) was 556 pmol/mg prot/min and 511 pmol/mg prot/min. For the same compound, the “CYP1A1 Fold induction” value ([4]; individual rat, versus water group) was 12 and 11.
